How the values were obtained:
[1] = system: patients having cardio-cerebrovascular diseases resulting from arteriosclerosis; experiment: Clinical trial in patients with cardio-cerebrovascular diseases resulting from arteriosclerosis; assay type: in vivo, human; conditions: for Total effective rate: excluding the withdrawing patients
From the text: 300 patients (male:female 1:1, aged 35-78 years and 57.5 years on average, and having a course of disease of the shortest 1.5 years, the longest 7 years, and 4.6 years on average) diagnosed as having cardio-cerebrovascular diseases resulting from arteriosclerosis were selected at random as subjects for clinical observation. The patients were assigned to a group A, a group B, and a group C at random, each group having 100 patients.
Group A: The patients were orally administered with NMN at a dosage of 10 mg/kg body weight before or after meals every day, and the diet was controlled as desired.
Group B: The patients were orally administered with NMN at a dosage of 10 mg/kg body weight and with NR at a dosage of 2 mg/kg body weight before or after meals every day, and the diet was controlled as desired.
Group C: The patients were intramusculary injected with NMN at a dosage of 10 mg/kg body weight and with NR at a dosage of 3 mg/kg body weight before or after meals every day, and the diet was controlled as desired.
(1) Obvious effectiveness: The health is built up, the body is powerful, the blood lipid and blood pressure drop to normal levels, the palpitation, chest pain, chest tightness, headache, dizziness, decreased vision, decreased memory, insomnia and dreamful sleep, and other clinical symptoms are obvious alleviated.
(2) Effectiveness: The health is built up, the blood lipid and blood pressure drop slightly, the palpitation, chest pain, chest tightness, headache, dizziness, decreased vision, decreased memory, insomnia and dreamful sleep, and other clinical symptoms are alleviated to some extent.
(3) Ineffectiveness: There is no obvious improvement in the clinical symptoms.

[2] = system: arteriosclerosis (lesion of the aorta) in guinea pigs fed on high-fat diet; experiment: Guinea pig high-fat diet arteriosclerosis model, lesion area of aorta (Sudan IV staining); assay type: in vivo
Protocol: 80 SPF healthy guinea pigs (female:male 1:1) having a body weight of 250-300 g, were assigned to 8 groups at random, each group having 10 animals. The groups include:
(1) a normal control group, fed on basal diet, and allowed to free access to water during experiment;
(2) a high fat control group, fed on high-fat diet, and allowed to free access to water during experiment;
(3) a high fat prevention group, fed on high-fat diet, dosed with 10 mg NMN/kg body weight by gavage every day, and allowed to free access to water during experiment;
(4) a low-dose NMN group, fed on high-fat diet, dosed with 0.1 mg NMN/kg body weight by gavage every day from week 7, and allowed to free access to water during experiment;
(5) a medium-dose NMN group, fed on high-fat diet, dosed with 10 mg NMN/kg body weight by gavage every day from week 7, and allowed to free access to water during experiment;
(6) a high-dose NMN group, fed on high-fat diet, dosed with 20 mg NMN/kg body weight by gavage every day from week 7, and allowed to free access to water during experiment;
(7) NMN+NR gavage group: fed on high-fat diet, dosed with 10 mg NMN/kg body weight and 1 mg NR/kg body weight by gavage every day from week 7, and allowed to free access to water during experiment.
(8) NMN+NR injection group: fed on high-fat diet, dosed with 10 mg NMN/kg body weight and 5 mg NR/kg body weight by intramuscular injection every day from week 7, and allowed to free access to water during experiment.
The formulation of the high-fat diet includes 83% basal diet, 2% cholesterol, and 15% lard oil.
At the end of week 10, all the experimental animals was fasted (allowed to access to water) for 12 hrs and then sacrificed. The aorta was isolated, dissected longitudinally along the midline of the anterior wall, and stained with Sudan IV. […] The lesion area pathologically measured and the total endangium area were quantified, and the degree of arteriosclerosis was expressed by percentages of the lesion area relative to the total endangium area of the aorta.
Statistical analysis: All the experimental data is analyzed by SPSS13.0 Statistics software. The measurement data is expressed as x±s, and t test is applied to check the statistical significance. Where P<0.05, there is statistical significance.

[3] = Group A: oral NMN 10 mg/kg every day, after 1 month
[4] = Group A: oral NMN 10 mg/kg every day, after 1 month, 100 patients

## NC(=O)c1ccc[n+]([C@@H]2O[C@H](COP(=O)([O-])O)[C@@H](O)[C@H]2O)c1 [NMN, β-nicotinamide mononucleotide]
[1]; Group A: oral NMN 10 mg/kg body weight every day
  Time after administration at which patients with mild disease are cured: 7 days
[1]; [3]
  Patients showing obvious effectiveness: 67 out of 100 patients
  Total effective rate: 96%
[1]; [4]
  Patients showing effectiveness: 28 patients
  Patients showing ineffectiveness: 4 patients
[1]; Group A: oral NMN 10 mg/kg every day, after 1 month, listed as β-nicotinamide mononucleotide
  Total effective rate: up to 96%
[2]; high fat prevention group: high-fat diet, 10 mg NMN/kg body weight by gavage every day, end of week 10, x±s
  Rate of lesion area of aorta (%): 13 ± 2%
[2]; high-dose: high-fat diet, 20 mg NMN/kg by gavage every day from week 7, end of week 10, x±s
  Rate of lesion area of aorta (%): 18 ± 4%
[2]; low-dose: high-fat diet, 0.1 mg NMN/kg by gavage every day from week 7, end of week 10, x±s
  Rate of lesion area of aorta (%): 58 ± 5%
[2]; medium-dose: high-fat diet, 10 mg NMN/kg by gavage every day from week 7, end of week 10, x±s
  Rate of lesion area of aorta (%): 27 ± 3%

Source: US20170165282A1, “USE OF BETA-NICOTINAMIDE MONONUCLEOTIDE IN PREPARATION OF DRUGS FOR PREVENTING AND TREATING ARTERIOSCLEROSIS AND CARDIO-CEREBROVASCULAR DISEASES, AND DRUGS CONTAINING THE SAME” (BONTAC BIO-ENGINEERING (SHENZHEN) CO., LTD, priority 2015, published 2017)
